In US11690828B2, “Treatment of CNS diseases with sGC stimulators” (Cyclerion Therapeutics, Inc., priority 2016, dated 2023):
pEC50: −log10 of the molar value.

Tests used:
rats [1] = assay: Brennan model - electronic Von Frey test; assay type: in vivo, rat; conditions: internal reference Morphine 4 mg/kg s.c.
Excerpt: Brennan Model. Surgery: Surgery was done under gas anesthesia (2.5% isoflurane/3 L/min). For all rats, the plantar aspect of the left hind paw was exposed and a 1 cm longitudinal incision was made using a surgical blade, through the skin and fascia of the plantar aspect of the foot, starting 0.5 cm from the proximal edge of the heel and extending toward the toes. The plantaris muscle was elevated and incised longitudinally whereas the insertions remained intact. After hemostasis with gentle pressure, the skin was stitched up with two sutures. After surgery, animals recovered in their cages.
Electronic Von Frey Test. Tactile allodynia was assessed using the electronic Von Frey test 24 h after surgery. The test requires the application of an increasing pressure onto the plantar aspect of the hind paws. The apparatus exerted a steady force on the hind paws. Reaction thresholds were determined as the pressure (g) required to elicit paw withdrawal. Each reaction threshold measurement was repeated three times for both hind paws with intervals of approximately 2 to 3 mins.
(§1) Testing: 120 minutes after treatment. N=4/model/test. Results are expressed for each group as a percentage of activity calculated from the mean value of the vehicle-treated animals and compared to naïve animals, control paw, or cut-off value, depending on the test.

Healthy rats [2] = assay: Healthy rats - paw pressure test; assay type: in vivo, rat; conditions: internal reference Morphine 4 mg/kg s.c.
Protocol: (§2) Paw Pressure Test. Static mechanical hyperalgesia is measured. This test requires the application of an increasing pressure on the hind paws between a flat surface and a blunt pointer. To evaluate the analgesic action of a compound, one hind paw of the animal was inflamed by an injection or injured by ligation, while the other hind paw was not injured or inflamed. The apparatus exerted a steadily increasing force on the hind paws. The reaction threshold was determined as the pressure (g) required to elicit paw withdrawal and/or vocalization. The animals were gently handled by the experimenter and static mechanical hyperalgesia were assessed two times for both hind paws.
as §1

Healthy rats [3] = assay: Healthy rats - tail flick test; assay type: in vivo, rat; conditions: internal reference Morphine 4 mg/kg s.c.
Protocol: Tail Flick Test. A radiant heat was applied on the tail. When the rat felt discomfort, it reacted by a sudden tail movement (tail flick) which automatically stopped the stimulation and the timer for the measurement by the animal reaction time or nociceptive reaction latency (period from the beginning of the stimulation until detection of the response of the animal). A cut-off was previously fixed at 10 sec in order to prevent tissue damage.
as §1

rats [4] = assay: Formalin test - score; assay type: in vivo, rat; conditions: internal reference Morphine 4 mg/kg s.c.
Protocol: Formalin Test. 2.5% formalin solution was injected by subplantar route into the right hind paw. Scoring of pain behavior was performed in rats for 36 minutes every 3 minutes according to the following scores:
0=normal behavior of the injected hind limb to support the body
1=slight touching of the injected paw on the floor to lightly support or not support the body
2=total withdrawal of the injected paw
3=licking, biting or shaking of the injected paw.
as §1

rats [5] = assay: Bennett model - paw pressure test; assay type: in vivo, rat; conditions: internal reference Morphine 3 mg/kg s.c.
Protocol: as §2
Bennett Model. Peripheral mononeuropathy was induced by loose ligation of the sciatic nerve in anesthetized rats (Xylazine 10 mg/kg i.p., ketamine 60 mg/kg i.p.) on D−14. Briefly, the common sciatic nerve was exposed at the level of the middle of the thigh by blunt dissection through the biceps femoris. Proximal to the sciatic trifurcation, four ligatures were loosely tied around it with about 1-mm spacing. […]
Testing: 120 minutes after treatment. […] Results are expressed for each group as a percentage of activity calculated from the mean value of the vehicle-treated animals and compared to naïve animals, control paw, or cut-off value, depending on the test.

sGC = assay: cGMP neuronal cell-based assay; conditions: rat primary hippocampal neurons; 30 μM DETA-NO; 50% of high control (10 μM Compound Y); read-out: sGC-neuron Abs EC50
Protocol: Rat primary neurons were isolated from fetuses of 18-day pregnant Sprague-Dawley females. The fetuses were collected in Hanks' balanced salt solution (HBSS) and brains were rapidly removed. The cerebral hippocampi were isolated and mechanically fragmented. Further tissue digestion was performed with 0.25% (wt/vol) trypsin solution in HBSS without Ca2+ and Mg2+ for 15 min at 37° C. After trypsination, cells were washed and resuspended in neurobasal medium supplemented with 0.5 mM L-glutamine, 12.5 uM glutamic acid, 2% B-27 and 100 U/mL penicillin, and 100 μg/mL streptomycin. Cells were plated at a density of 4×10^4 cells/well in a poly-D-lysine coated 384-well flat clear-bottom plate (Corning Cat No 354662). Cells were incubated 6-7 days at 37° C. in a humidified chamber with 5% CO2. Media was removed and cells were washed 1× with HBSS containing Ca2+ and Mg2+, and replaced with 40 uL HBSS containing 0.5 mM IBMX, and incubated for 15 minutes at 37° C. 10 uL of a 5× stock of test compounds with diethylenetriamine NONOate (DETA-NO) was added. Final concentration of DETA-NO was 30 μM. Cells were incubated for 20 min at 37° C. Medium was removed, 50 uL of ice-cold 10% acetic acid was added, and incubated for 60 minutes at 4° C. Following centrifugation at 4° C. for 5 minutes at 1000×g to pellet cell debris, the supernatant was aspirated to a clean plate and the samples were analyzed for cGMP content. cGMP concentrations were determined from each sample using LC-MS/MS.
Data were normalized to a high control using the following equation: 100*(Sample−Low Control)/(High Control−Low Control), where the low control is the average of 15 samples treated with 1% DMSO, and the high control is the average of 15 samples treated with 10 μM of the known sGC stimulator Compound Y (depicted in Example 2). Data were fit using a 4-parameter fit (log(agonist) vs. response—variable slope) using GraphPad Prism Software v.5. n=2 for all compounds. […]

male Long Evans rats = assay: Novel Object Recognition (NOR) test, MK-801-induced memory deficit; assay type: in vivo, rat
[6] = Rat cerebrospinal fluid (CSF) pharmacokinetic properties; assay type: in vivo; conditions: male, Sprague-Dawley; for concentration at 1 h: CSF, PO 10 mg/kg in PEG400, 1 h post-dosing, read-out: CSF Conc (nM @ 1 h); for Kp uu at 1 h: PO 10 mg/kg, unbound CSF / unbound plasma
Protocol: PK in rats was determined following oral dosing. For the oral (PO) experiments, a group of 6 male Sprague-Dawley rats with an indwelling catheter placed in the cisterna magna were used. The PO group was dosed with 3 or 10 mg/kg of a compound formulated as a solution in PEG400. PO doses were administered by oral gavage and delivered to the stomach using a syringe and gavage tube. Following oral dosage administration, the gavage tube was flushed with approximately 0.5 mL of water to ensure complete delivery of the full dose.
Plasma and CSF samples were collected as follows: samples of CSF and blood were collected at 1 hour and 2 hours post-dosing. CSF samples (0.05 mL) were collected through the intracisternal catheter. Blood samples (0.25 mL) were collected through retro-orbital sampling. These samples were kept on ice until processed for plasma. Blood samples were centrifuged at 3200 rpm for 5 minutes at approximately 5° C. within 1 hour of collection. Plasma was directly transferred to a 96-well plate tube (0.125 mL). Plug caps were placed on the tubes and the tubes frozen at approximately −70° C. and stored until analysis.
Plasma was collected and analyzed for the presence of compound.
The compound in question and the internal standard were extracted from plasma and CSF by precipitation. Samples were analyzed using liquid chromatography (LC) with tandem mass spectrometric detection (MS/MS) using electrospray ionization. The standard curve range was from 1 to 1000 ng/mL.
Kp,uu is defined as the concentration ratio of unbound drug in CSF to unbound drug in plasma. Unbound drug in plasma (or free plasma concentration) is calculated by multiplying the total plasma concentration by the unbound fraction as determined by plasma protein binding. The CSF concentration is then divided by the free plasma concentration to determine the Kp,uu. (See e.g., Di et al., J. Med. Chem., 56, 2-12 (2013)).

rats [7] = assay: Kaolin - gait score; assay type: in vivo, rat; conditions: internal reference Indomethacin 10 mg/kg p.o.
Protocol: Kaolin. Induction: In rats, unilateral arthritis was induced by an intra-articular injection of a 10% kaolin suspension into the knee joint of the right hind paw under gas anesthesia (3.5% isoflurane/3 L/min). Gait score: The gait score will be evaluated 3 h 30 min after kaolin administration by:
2: intermittent raising of the paw
as §1

rats [8] = assay: Carrageenan - paw pressure test; assay type: in vivo, rat; conditions: internal reference Indomethacin 30 mg/kg p.o.
Protocol: as §2
Carrageenan. Induction: Three hours before assessment of the nociceptive threshold using the paw pressure test 100 μL of a 2% carrageenan suspension was injected into the plantar aspect of the right hind paw. The Paw Pressure test was then conducted as described above.
as §1

## CN1CC[C@]23c4c5ccc(O)c4O[C@H]2[C@@H](O)C=C[C@H]3[C@H]1C5 [Morphine, reference compound]
Rats [1]
  % of activity vs. vehicle, Brennan model electronic Von Frey test: 88%
Healthy rats [2]
  % of activity vs. vehicle, healthy rats paw pressure test: 69%
Healthy rats [3]
  % of activity vs. vehicle, healthy rats tail flick test: 66%
Rats [4]
  % of activity vs. vehicle, formalin test score (early phase): 57%
  % of activity vs. vehicle, formalin test score (late phase): 38%
Rats [5]
  % of activity vs. vehicle, Bennett model paw pressure test: 191%

## Fc1ccccc1Cc1nc(-c2nc(C(F)(F)F)n[nH]2)n2ccccc12 [Compound I-3]
sGC
  pEC50: ≥ 7.00

## C[C@]12N[C@H](Cc3ccccc31)c1ccccc12 [MK-801, MK-801 (Dizocilpine), reference compound]
Male Long Evans rats; MK-801 0.1 mg/kg
  Effect on recognition memory, 0-3 minute time range: strong memory deficit
  Effect on recognition memory, 0-5 minute time range: strong memory deficit
Male Long Evans rats; Vehicle + MK-801 0.1 mg/kg IP, Vehicle + Saline control 73.78
  Recognition Index, Mean (0 to 3 minute time bin): 56.92%

## Cc1ncc(Cc2nc(-c3nc(C(F)(F)F)n[nH]3)n3ccccc23)cn1 [Compound I-4]
[6]
  concentration at 1 h: 180 nM
  Kp uu at 1 h: 0.96

## COc1ccc2c(c1)c(CC(=O)O)c(C)n2C(=O)c1ccc(Cl)cc1 [Indomethacin, reference compound]
Rats [7]
  % of activity vs. vehicle, kaolin gait score: 58%
Rats [8]
  % of activity vs. vehicle, carrageenan paw pressure test: 100%

## Fc1ccccc1Cc1nc(-c2nc(C(F)(F)F)n[nH]2)c2cccnn12 [Compound I-6]
[6]
  concentration at 1 h: 0.78 nM
  Kp uu at 1 h: < 0.01

## COc1ccc2c3c1O[C@H]1C[C@@H](O)C=C[C@@]31CCN(C)C2 [Galantamine, reference compound]
Male Long Evans rats; Galantamine 1 mg/kg IP + MK-801 0.1 mg/kg IP
  Recognition Index, Mean (0 to 3 minute time bin): 73.33%
